Results published in ChEMBL document CHEMBL1141753, “Cytotoxic diterpenoids from the soft coral Sinularia microclavata” (J Nat Prod, 2005).
Values after ≈ are worked out from the molar mass of the structure shown.

Experiments:
Format in all cases: functional, cell-based
KB = experiment: Cytotoxicity against human KB cells by MTT assay
MCF7 = experiment: Cytotoxicity against human MCF7 cells by MTT assay
A549 = experiment: Cytotoxicity against human A549 cells by MTT assay

Structure (SMILES) | IC50 (KB) | IC50 (MCF7) | IC50 (A549)
C/C1=C\[C@@H]2[C@H](CC[C@H](C)CC(=O)[C@@H]3O[C@]3(C)/C=C/C1=O)C2(C)C [MICROCLAVATIN] | 5 µg/mL (≈ 15.8 µM) | 20 µg/mL (≈ 63.2 µM) | –
C=C1C(=O)O[C@]2(C)CC[C@@H]1C[C@@H](O)[C@@](C)(O)CC/C=C(\C)CC[C@@H]2O [CAPILLOLIDE] | – | – | 0.5 µg/mL (≈ 1.42 µM)
